From the supplement of paper PMC10307832

Key:
Test in all cases: relative viability (nuclei count vs DMSO), 5 days (fraction); higher = more cells survive
[1] = compound: C=CCNC1=C2C[C@@H](C)C[C@H](OC)[C@H](O)[C@@H](C)/C=C(\C)[C@H](OC(N)=O)[C@@H](OC)/C=C\C=C(/C)C(=O)NC(=CC1=O)C2=O [17-AAG] + Nc1nc2[nH]cc(CCc3ccc(C(=O)N[C@@H](CCC(=O)O)C(=O)O)cc3)c2c(=O)[nH]1 [Pemetrexed] (partner 0.2 µM)
How it was run: (§1)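 Dosing by pin tool came one day after lung cancer cell lines were seeded in 1536-well plates, using either one drug or a fixed anchor-drug dose plus five library-drug doses (not always all listed) in √10 steps. After 5 days, nuclei were counted on 4× images. Relative viability is treated-well nuclei count divided by vehicle-well nuclei count, and values are medians of duplicate plates.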

[2] = compound: C=CCNC1=C2C[C@@H](C)C[C@H](OC)[C@H](O)[C@@H](C)/C=C(\C)[C@H](OC(N)=O)[C@@H](OC)/C=C\C=C(/C)C(=O)NC(=CC1=O)C2=O [17-AAG] + COc1cccc2cc(-c3nc([C@H]4CC[C@H](C(=O)O)CC4)n4ncnc(N)c34)[nH]c12 [OSI-027] (partner 0.5 µM)
How it was run: as §1

[3] = compound: C=CCNC1=C2C[C@@H](C)C[C@H](OC)[C@H](O)[C@@H](C)/C=C(\C)[C@H](OC(N)=O)[C@@H](OC)/C=C\C=C(/C)C(=O)NC(=CC1=O)C2=O [17-AAG] + COc1cc2c(Oc3ccc(NC(=O)C4(C(=O)Nc5ccc(F)cc5)CC4)cc3F)ccnc2cc1OCCCN1CCOCC1 [Foretinib] (partner 0.25 µM)
How it was run: as §1

[4] = compound: C=CCNC1=C2C[C@@H](C)C[C@H](OC)[C@H](O)[C@@H](C)/C=C(\C)[C@H](OC(N)=O)[C@@H](OC)/C=C\C=C(/C)C(=O)NC(=CC1=O)C2=O [17-AAG] + NC(=O)Nc1cc(-c2cccc(F)c2)sc1C(=O)N[C@H]1CCCNC1 [AZD7762] (partner 0.2 µM)
How it was run: as §1

Cell Line	relative viability ([1]; first compound 0.00128 µM)	relative viability ([1]; first compound 0.004048 µM)	relative viability ([1]; first compound 0.0128 µM)	relative viability ([1]; first compound 0.04048 µM)	relative viability ([1]; first compound 0.128 µM)	relative viability ([2]; first compound 0.00128 µM)	relative viability ([2]; first compound 0.004048 µM)	relative viability ([2]; first compound 0.0128 µM)	relative viability ([2]; first compound 0.04048 µM)	relative viability ([2]; first compound 0.128 µM)	relative viability ([3]; first compound 0.00128 µM)	relative viability ([3]; first compound 0.004048 µM)	relative viability ([3]; first compound 0.0128 µM)	relative viability ([3]; first compound 0.04048 µM)	relative viability ([3]; first compound 0.128 µM)	relative viability ([4]; first compound 0.00128 µM)	relative viability ([4]; first compound 0.004048 µM)	relative viability ([4]; first compound 0.0128 µM)	relative viability ([4]; first compound 0.04048 µM)	relative viability ([4]; first compound 0.128 µM)
PC-14	0.143	0.166	0.111	0.0924	0.0882	0.803	0.289	0.0511	0.0734	0.0603	0.943	0.961	0.82	0.143	0.134	0.288	0.293	0.144	0.0832	0.129
NCI-H647	0.203	0.179	0.102	0.0945	0.0923	0.585	0.553	0.187	0.0899	0.0977	1.1	1.16	0.863	0.117	0.0874	0.487	0.175	0.0631	0.074	0.0589
NCI-H460	0.0582	0.0712	0.0849	0.0247	0.0362	0.62	0.413	0.0464	0.0193	0.0168	0.983	0.907	0.063	0.0391	0.0257	0.549	0.676	0.0907	0.0489	0.0524
NCI-H1355	1	0.993	1.06	0.623	0.164	0.44	0.467	0.272	0.185	0.166	0.938	0.97	0.91	0.843	0.328	0.795	0.682	0.311	0.236	0.144
NCI-H2405	1.05	0.956	0.267	0.186	0.156	0.636	0.686	0.532	0.223	0.181	1.1	1.04	0.93	0.245	0.195	0.741	0.525	0.23	0.153	0.143
LCLC-97TM1	0.188	0.204	0.186	0.206	0.116	0.506	0.575	0.392	0.241	0.18	0.973	0.897	0.958	0.991	0.631	0.281	0.359	0.278	0.21	0.0815
EMC-BAC-2	0.504	0.536	0.548	0.448	0.383	0.464	0.486	0.438	0.3	0.216	1.04	1.05	1.09	0.353	0.316	1.17	1.15	0.735	0.598	0.287
NCI-H1975	0.299	0.338	0.191	0.162	0.156	0.654	0.446	0.133	0.147	0.115	1.02	0.904	0.288	0.136	0.118	0.753	0.656	0.331	0.203	0.216
BEN	0.756	0.882	0.716	0.526	0.247	0.337	0.307	0.256	0.232	0.2	0.626	0.767	0.649	0.517	0.411	0.692	0.891	0.648	0.5	0.392
SW 900	0.455	0.437	0.242	0.139	0.168	0.476	0.487	0.134	0.0879	0.0977	0.868	0.735	0.39	0.119	0.0963	0.661	0.68	0.255	0.11	0.133
NCI-H23	0.564	0.735	0.442	0.202	0.147	0.623	0.646	0.365	0.179	0.121	0.906	1.04	0.842	0.641	0.182	0.201	0.4	0.18	0.122	0.0996
NCI-H596	0.558	0.542	0.508	0.505	0.337	0.742	0.713	0.854	0.519	0.274	0.923	0.749	0.923	0.698	0.397	1.12	1.05	1.18	1.04	0.397
CAL-12T	1.17	0.951	1.15	1.04	0.207	0.564	0.807	0.713	0.411	0.128	1.12	1.07	1.08	0.608	0.202	0.655	0.553	0.608	0.393	0.233
EPLC-272H	0.404	0.365	0.166	0.145	0.0977	0.275	0.277	0.247	0.145	0.112	0.704	0.412	0.772	0.216	0.125	0.208	0.3	0.207	0.13	0.101
LCLC-103H	0.452	0.48	0.461	0.557	0.61	0.484	0.496	0.478	0.515	0.383	0.874	0.818	0.736	0.932	1.01	0.756	0.755	0.742	0.834	0.835
